Legend:
[1] = test system: polysynaptic reflexes induced by strychnine; assay: inhibition of the polysynaptic reflexes induced by strychnine in rabbits; format: in vivo, rabbit; conditions: for reduction of polysynaptic reflexes / removal of the potentiation of strychnine-induced reflexes: rabbits, 1 mg/kg intramuscularly
From the text: The inhibition of the polysynaptic reflexes induced by strychnine in rabbits has been studied for the in vivo tests.

glycine receptors = target: T1, glycine receptors (Rattus norvegicus, UniProt P07727); assay: binding tests, affinity to glycine receptors (% displacement)
T1 construct: from tissue; host or cells: rat spinal cord / brainstem synaptic membranes (inferred from the cited method)
From the text: The compounds of the invention have shown in binding tests a higher affinity to glycine receptors (Table I) than a structurally similar compound, i.e. thiocolchicoside.
The interaction of the compositions of the invention with their receptors has been evaluated according to the procedure by A. B. Young and S. H. Snyder reported in Proc. Natl. Acad. Sci U.S.A. 71, 4002, 1974.

[2] = acute toxicity (DL50) in the mouse; conditions: in vivo, iv
Method: The DL50 of the compounds I-III is, in fact, higher than 30 mg/kg i.v. in the mouse, the DL50 of thiocolchicoside being 7.5 mg/kg.

T1 sequence (P07727 29-457): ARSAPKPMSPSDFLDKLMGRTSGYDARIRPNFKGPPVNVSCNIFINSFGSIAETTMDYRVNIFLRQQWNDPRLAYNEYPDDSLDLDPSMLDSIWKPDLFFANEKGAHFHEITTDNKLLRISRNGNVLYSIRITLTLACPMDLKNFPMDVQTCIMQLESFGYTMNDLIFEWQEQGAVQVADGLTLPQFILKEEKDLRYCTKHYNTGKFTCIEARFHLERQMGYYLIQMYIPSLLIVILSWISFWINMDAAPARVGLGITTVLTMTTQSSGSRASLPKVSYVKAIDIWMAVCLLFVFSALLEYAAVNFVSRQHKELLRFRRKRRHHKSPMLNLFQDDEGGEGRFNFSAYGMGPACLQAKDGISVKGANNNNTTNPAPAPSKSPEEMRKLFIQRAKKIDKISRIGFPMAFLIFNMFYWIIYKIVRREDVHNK
T1 sequence (P20781 23-496 partner): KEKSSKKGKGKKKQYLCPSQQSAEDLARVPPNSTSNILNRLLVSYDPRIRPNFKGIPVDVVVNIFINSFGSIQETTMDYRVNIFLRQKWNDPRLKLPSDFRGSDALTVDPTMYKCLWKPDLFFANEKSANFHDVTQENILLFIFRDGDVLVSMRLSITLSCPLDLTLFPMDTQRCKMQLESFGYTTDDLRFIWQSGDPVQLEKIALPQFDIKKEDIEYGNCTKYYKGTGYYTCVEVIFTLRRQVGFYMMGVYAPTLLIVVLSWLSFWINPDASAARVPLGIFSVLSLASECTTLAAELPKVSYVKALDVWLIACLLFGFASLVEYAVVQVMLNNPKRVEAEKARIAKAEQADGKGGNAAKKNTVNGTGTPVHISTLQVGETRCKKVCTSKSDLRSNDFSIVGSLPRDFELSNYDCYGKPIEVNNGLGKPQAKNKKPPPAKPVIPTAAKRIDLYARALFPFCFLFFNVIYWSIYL

Row | Compound | reduction of polysynaptic reflexes [1] [%] | removal of the potentiation of strychnine-induced reflexes [1] | inhibition at 0.1 µM (glycine receptors) [%] | inhibition at 1 µM (glycine receptors) [%] | minimal effective dose at 1 mg/kg ([1]; Oryctolagus cuniculus, read-out: minimum dose to obtain comparable effects) [mg/kg] | inhibition at 0.5 µM (glycine receptors; 0.5 μM) [%] | LD50 [2] [mg/kg]
1 | COc1c(OCC2CO2)cc2c(c1OC)-c1ccc(SC)c(=O)cc1[C@@H](NC(C)=O)CC2 (some centres unmarked) [Compound I, 3-demethyl-3-glycidylthiocolchicine] | 50 | removing completely | 40 | 85 |  |  | 
2 | COc1c(OCC(O)CO)cc2c(c1OC)-c1ccc(SC)c(=O)cc1[C@@H](NC(C)=O)CC2 (some centres unmarked) [Compound II, 3-demethyl-3-(2,3-dihydroxyrpropyl)thiocolchicine] | 60 | removing completely | 35 | 65 |  |  | 
3 | COc1c(OCC(O)CN)cc2c(c1OC)-c1ccc(SC)c(=O)cc1[C@@H](NC(C)=O)CC2 (some centres unmarked) [Compound III, 3-demethyl-3-(3-amino-2-hydroxypropyl)thiocolchicine] | 65 | removing completely | 50 | 75 |  |  | 
4 | COc1c(O[C@@H]2O[C@H](CO)[C@@H](O)[C@H](O)[C@H]2O)cc2c(c1OC)-c1ccc(SC)c(=O)cc1[C@@H](NC(C)=O)CC2 [thiocolchicoside, 3-demethyl-thiocolchicine glucoside, reference compound] |  |  | 20 | 70 | ≥ 5 | 45 | 7.5

— patent publication US5973204A (priority 1997, dated 1999)
